According to article PMC13289030, “Qualification of the human Reconstructed Intestine Micronuclei Cytome assay for site-of-contact genotoxic hazard identification” (NAM journal, 2025):
Converted amounts (≈) assume the structure as drawn. “Also recorded” adds a separate entry of the source. Where two headings read alike, the source gives them in different places. Where a SMILES comes first, the peptide text is derived from it.

Columns and labels:
[1] = system: EpiIntestinal™ microtissues; assay: Cytotoxicity / relative cell count (RCC) of dissociated EpiIntestinal microtissues; conditions: for Cytotoxicity / cell viability (result in words) / Cytotoxicity: 10-day exposure; for Cytotoxicity / cell viability (result in words): tested doses
[2] = cited from earlier work
[3] = system: EpiIntestinal™ microtissues; assay: RICyt assay: micronuclei (MN) cytome scoring in EpiIntestinal microtissues after 10-day repeated apical exposure
[4] = published genotoxic profile; ref Kirkland et al., 2016; EFSA; cited from earlier work
[5] = Test material solubility limit for top test concentration; format: physicochemical; conditions: for solubility: read-out: Concentration above which test material is insoluble (top test concentration)
[6] = system: EpiIntestinal™ microtissues
topoisomerase II = system: topoisomerase II; parameters: method as in Maralhas et al., 2006; conditions: ref Maralhas et al., 2006; cited from earlier work
Caco-2 = conditions: ref Schrenk et al., 2022; cited from earlier work
[7] = system: EpiIntestinal™ microtissues; remark: listed apart in the source
[8] = system: EpiIntestinal™ microtissues; conditions: cited from earlier work
[9] = published genotoxic profile, ref Kirkland et al., 2016, EFSA
[10] = 10-day exposure, relative to solvent control and historical negative control range (≤2.4 %)
[11] = 10-day exposure, positive = significant, dose-dependent %MN increase above historical negative range (>2.4 %)

Row | Molecule | Cytotoxicity / cell viability (result in words) [1] | In vivo genotoxicity tests [2, 9] | Karyorrhectic cells (cytome analysis) ([3]; 10-day exposure) | %MN induction (result in words) [3, 10] | In vitro genotoxicity tests [4] | In vivo genotoxicity tests ([2]; in vivo) | also measured
1 | O=Cc1ccc(CO)o1 [5-Hydroxymethyl furfural, 5-Hydroxymethylfurfural] | Cytotoxicity was observed with increasing doses | - MN | increase in karyorrhectic cell population though not statistically significant | consistently low without exceeding the historical negative range | + Comet and SCE - for MN |  | RICyt outcome (genotoxic classification) [3, 11]: Negative; RICyt outcome (genotoxic classification) ([3]; 10-day exposure, positive = significant, dose-dependent %MN increase above historical negative range (>2.4 %), listed as 5-HMF): clear negative
2 | COC(=O)[C@H](Cc1ccccc1)NC(=O)[C@@H](N)CC(=O)O [Aspartame] (H-Asp-Phe-OMe) | did not produce significant %MN and cytotoxicity | - MN, comet and CA |  | did not produce significant %MN | - CA and MN - SCE |  | RICyt outcome (genotoxic classification) [3, 11]: Negative; RICyt outcome (genotoxic classification) ([3]; 10-day exposure, positive = significant, dose-dependent %MN increase above historical negative range (>2.4 %), listed as aspartame): clear negative
3 | COc1cc(/C=C/C(=O)CC(=O)/C=C/c2ccc(O)c(OC)c2)ccc1O [Curcumin] |  |  | increase in karyorrhectic cells | no significant formation of MN |  |  | solubility ([5]; in solvent/culture media): 50 µg/mL (≈ 136 µM); Cytotoxicity ([1]; at higher doses / top two concentrations): 15–20%
4 | CCOS(C)(=O)=O [Ethyl methanesulfonate] |  |  |  |  |  | + MN, comet and CA | Cytotoxicity / cell viability (result in words) [6]: no observable cytotoxicity
5 | C=CCc1ccc(O)c(OC)c1 [Eugenol] | cytotoxicity observed in the tested doses |  | consistent increase in karyorrhectic cell population |  |  | + MN only at very high doses. Equivocal | Topoisomerase II activity (topoisomerase II): could inhibit topoisomerase II activity; Genotoxicity in vivo ([2]; in vivo): genotoxic positive; %MN induction (result in words) ([3]; 10-day exposure, relative to solvent control and historical negative control range (≤2.4 %), listed as EUG): very close to the established 95 % upper confident limits; RICyt outcome (genotoxic classification) [3, 11]: Equivocal
6 | Nc1nc(N)nc(N)n1 [Melamine] | No genotoxicity nor cytotoxicity were detected |  |  | not significant and below the historical negative range |  |  | solubility ([5]; in solvent/culture media): 500 µg/mL (≈ 3960 µM)
7 | CC(C)=CCC/C(C)=C/CC/C(C)=C/CC/C(C)=C/CC/C(C)=C/CC/C(C)=C/CC/C(C)=C/CC1=C(C)C(=O)c2ccccc2C1=O [Menaquinone 7] | no significant MN induction nor cytotoxicity |  |  | no significant MN induction |  |  | Concentration above which test material is insoluble (top test concentration) ([5]; in solvent/culture media): 1000 µg/mL; Other nuclear anomalies (cytome analysis) ([3]; 10-day exposure): not detected
8 | C[C@H]1C(=O)O[C@@H]2CCN3CC=C(COC(=O)[C@](C)(O)[C@]1(C)O)[C@H]23 [Monocrotaline] |  |  |  |  |  | + DNA adduct, DNA crosslinking and MN | Cytotoxicity / cell viability (result in words) [6]: without obvious cytotoxicity; Gut permeability (Caco-2): moderate gut permeability; %MN increment ([7]; human): 2.53%
9 | CCN(N=O)C(N)=O [N-Ethyl-N-nitrosourea] |  | + CA, MN, comet | non-significant increase in karyorrhectic cells | statistically significant increases in MN in a dose dependent manner | + MN, CA, MLA, HPRT mutations and UDS |  | Cytotoxicity ([1]; across tested concentrations (ENU up to 150 µg/ml; GA up to 25 µg/ml)): ≤ 15%; %MN induction (result in words) ([3]; 10-day exposure, relative to solvent control and historical negative control range (≤2.4 %), listed as ENU): positive induction of MN
10 | CC(=O)O[C@H]1C(=O)[C@@]2(C)[C@H]([C@H](OC(=O)c3ccccc3)[C@]3(O)C[C@H](OC(=O)[C@H](O)[C@@H](NC(=O)c4ccccc4)c4ccccc4)C(C)=C1C3(C)C)[C@]1(OC(C)=O)CO[C@@H]1C[C@@H]2O [Paclitaxel] | decrease in cell viability at the top two exposed doses | + MN in bone marrow and liver | non-significant but dose dependent increase in karyorrhectic cell population | statistically significant increase in %MN; also recorded: positive induction of MN | + MN, polyploidy in a CA test and in MLA |  | RICyt outcome (genotoxic classification) [3, 11]: true positive
11 | c1ccc2c(c1)cc1ccc3cccc4ccc2c1c34 [benzo(a)pyrene] |  |  |  |  |  |  | MN induction / genotoxicity in RICyt platform [8]: genotoxicity was successfully detected
12 | CC(C)[C@@H]1CC[C@@H](C)C[C@H]1O [d,l-Menthol, D,L-MENTHOL] |  |  |  |  |  | - | Concentration above which test material is insoluble (top test concentration) [5]: 500 µg/mL; Cytotoxicity / cell viability (result in words) [6]: no significant impact on cell viability; %MN induction (result in words) [7]: low level of MN which fell within 95 % confident limit of the historical negative control
13 | CC[C@]1(O)C[C@@H]2CN(CCc3c([nH]c4ccccc34)[C@@](C(=O)OC)(c3cc4c(cc3OC)N(C)[C@H]3[C@@](O)(C(=O)OC)[C@H](OC(C)=O)[C@]5(CC)C=CCN6CC[C@]43[C@@H]65)C2)C1 [vinblastine] |  |  |  |  |  |  | MN induction / genotoxicity in RICyt platform ([8]; previous publication, ref Lim et al., 2022): positive induction of MN
14 | C/C=C\c1cc(OC)c(OC)cc1OC [β-asarone] |  | MN negative |  |  | + MN, comet and SCE |  | Cytotoxicity / cell viability (result in words) [6]: Increases in cytotoxicity at the top two doses; RICyt outcome (genotoxic classification) [7]: Negative
15 | Aflatoxin B1 |  |  |  |  |  | + MN, CA, UDS − comets | Loss/reduction in cell viability [1]: ~40%; %MN induction (result in words) [3]: significant and dose-dependent formation of MN; RICyt outcome (genotoxic classification) [3]: genotoxicity was successfully detected; also recorded: Positive
